These results are taken from US20180148418A1, “AMIDO-SUBSTITUTED CYCLOHEXANE DERIVATIVES” (Bayer Pharma Aktiengesellschaft, priority 2015, published 2018).

By IC50 is commonly meant the point on the concentration scale where inhibition reaches its midpoint. Higher therefore signals weaker potency.

Assay [1] deals with wildtype Wnt signaling cascade. The assay is described as follows: HEK293 TOP assay (Super TopFlash luciferase reporter, Wnt-3a stimulated). The following applies: Homo sapiens, HEK293, 16 h, HEK293 TOP reporter cells, Wnt3a at EC50, 16 hours. The assay is classed as cell-based. The method in brief: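 Compound series (50 μM down to 15 nM, 3.16-fold) diluted from DMSO 50-fold into CAFTY buffer, pH 7.4, 2 mM Ca^2+, 0.01% BSA, applied to Wnt-3a-stimulated HEK293 TopFlash and FOP reporter lines in parallel. Cells seeded 10000/well 24 h before; luciferase signal measured.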
A general note: A reporter such as luciferase makes a cellular process visible.

In assay [2] the test system is HEK293 cells cotransfected with the FOP control vector. The assay is described as follows: HEK293 FOP assay (control reporter with non-functional TCF elements). The assay is classed as cell-based. The settings on record: Homo sapiens, 16 hours. The method, boiled down:
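Compound series from 50 μM down to 15 nM, prediluted in DMSO then 50-fold into CAFTY buffer (pH 7.4, 2 mM Ca2+, 0.01% BSA), tested alongside TOP cells on a Geneticin-selected HEK293 FOP line whose TCF elements are replaced by a random sequence; recombinant human Wnt-3a applied at 2500-5 ng/ml.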

Assay [3] deals with T1, TNKS2 (Homo sapiens, UniProt Q9H2K2).
T1 construct: purchased BPS Bioscience, San Diego, USA 80572 (TNKS2 Histone Ribosylation Assay Kit)
T1 sequence (Q9H2K2 1-1166): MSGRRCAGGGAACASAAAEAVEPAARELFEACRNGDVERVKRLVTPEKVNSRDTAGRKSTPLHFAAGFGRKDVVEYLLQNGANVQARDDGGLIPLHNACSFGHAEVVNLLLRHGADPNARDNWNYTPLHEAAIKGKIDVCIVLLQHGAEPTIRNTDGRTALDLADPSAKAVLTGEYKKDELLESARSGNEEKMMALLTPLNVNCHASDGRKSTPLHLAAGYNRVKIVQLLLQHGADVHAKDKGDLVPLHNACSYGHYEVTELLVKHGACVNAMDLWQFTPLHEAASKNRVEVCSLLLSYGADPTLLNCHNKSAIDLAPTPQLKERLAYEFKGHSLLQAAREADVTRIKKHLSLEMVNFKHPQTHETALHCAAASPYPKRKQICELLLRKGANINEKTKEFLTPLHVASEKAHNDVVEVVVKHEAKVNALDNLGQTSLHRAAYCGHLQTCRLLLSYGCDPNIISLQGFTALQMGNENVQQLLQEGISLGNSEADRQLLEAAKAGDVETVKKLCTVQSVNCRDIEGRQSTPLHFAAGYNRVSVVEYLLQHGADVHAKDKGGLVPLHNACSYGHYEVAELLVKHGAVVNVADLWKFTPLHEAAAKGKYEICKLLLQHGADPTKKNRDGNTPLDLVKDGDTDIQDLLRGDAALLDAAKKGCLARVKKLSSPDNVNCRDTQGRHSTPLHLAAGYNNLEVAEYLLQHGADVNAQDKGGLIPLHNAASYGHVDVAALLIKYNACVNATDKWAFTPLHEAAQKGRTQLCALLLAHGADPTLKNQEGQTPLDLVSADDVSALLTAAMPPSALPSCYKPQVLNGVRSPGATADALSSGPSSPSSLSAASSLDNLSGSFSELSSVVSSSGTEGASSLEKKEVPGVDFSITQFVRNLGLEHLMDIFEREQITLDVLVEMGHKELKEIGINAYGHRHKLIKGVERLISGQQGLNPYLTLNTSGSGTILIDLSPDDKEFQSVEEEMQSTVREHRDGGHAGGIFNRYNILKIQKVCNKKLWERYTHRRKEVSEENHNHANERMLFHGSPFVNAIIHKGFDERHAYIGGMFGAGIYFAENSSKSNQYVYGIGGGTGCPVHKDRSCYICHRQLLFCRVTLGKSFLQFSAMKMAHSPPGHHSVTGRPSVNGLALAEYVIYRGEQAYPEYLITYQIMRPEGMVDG
The assay is described as follows: TNKS2 Assay B (auto-parsylation, [3H]-NAD+ SPA). The class given is biochemical. The following applies: 6 nM TNKS2, auto-parsylation, over night at room temperature.

With `O=C(N[C@H]1CC[C@@]2(CCCN(c3ccc(F)cc3Cl)C2=O)CC1)c1[nH]cnc1C(=O)N1CC(F)C1` [Example 327, N-[(trans)-2-(2-chloro-4-fluorophenyl)-1-oxo-2-azaspiro[5.5]undec-9-yl]-4-[(3-fluoroazetidin-1-yl)carbonyl]-1H-imidazole-5-carboxamide], the IC50 was 7 nM in assay [1], 31000 nM in assay [2] and 29 nM in assay [3].
In the case of `O=C(NC1CC1)c1nc[nH]c1C(=O)N[C@H]1CC[C@@]2(CCCN(c3ccc(F)cc3Cl)C2=O)CC1` [Example 328, N^5-[(trans)-2-(2-chloro-4-fluorophenyl)-1-oxo-2-azaspiro[5.5]undec-9-yl]-N^4-cyclopropyl-1H-imidazole-4,5-dicarboxamide], the results for the half-inhibitory concentration (IC50) in assay [1], in assay [2] and in assay [3] were 50 nM, 27000 nM and 75 nM, respectively.
The corresponding values for `CC(C)NC(=O)c1nc[nH]c1C(=O)N[C@H]1CC[C@@]2(CCCN(c3ccc(F)cc3Cl)C2=O)CC1` [Example 329, N^5-[(trans)-2-(2-chloro-4-fluorophenyl)-1-oxo-2-azaspiro[5.5]undec-9-yl]-N^4-(propan-2-yl)-1H-imidazole-4,5-dicarboxamide] are 260 nM, 40000 nM and 160 nM.
For `O=C(N[C@H]1CC[C@@]2(CCN(c3ccc(F)cc3Cl)C2=O)CC1)c1cnn2ccc(C(F)F)nc12` [Example 330, N-[(trans)-2-(2-chloro-4-fluorophenyl)-1-oxo-2-azaspiro[4.5]dec-8-yl]-5-(difluoromethyl)pyrazolo[1,5-a]pyrimidine-3-carboxamide] the same measures were 5 nM, 30000 nM and 11 nM.
As for `O=C(N[C@H]1CC[C@@]2(CCN(c3ccc(F)cc3Cl)C2=O)CC1)c1cnn2c(C(F)F)cc(C(F)F)nc12` [Example 331, N-[(trans)-2-(2-chloro-4-fluorophenyl)-1-oxo-2-azaspiro[4.5]dec-8-yl]-5,7-bis(difluoromethyl)pyrazolo[1,5-a]pyrimidine-3-carboxamide], the values for the half-inhibitory concentration (IC50) in assay [1], in assay [2] and in assay [3] were 6.5 nM, 30000 nM and 76 nM, respectively.
`O=C(N[C@H]1CC[C@]2(CCN(c3ccc(F)cc3Cl)C2=O)CC1)c1c[nH]c2cccnc12` [Example 332, N-[(cis)-2-(2-chloro-4-fluorophenyl)-1-oxo-2-azaspiro[4.5]dec-8-yl]-1H-pyrrolo[3,2-b]pyridine-3-carboxamide]: the figures for the 50% inhibitory concentration (IC50) in assay [1], in assay [2] and in assay [3] were 570 nM, 35000 nM and 4700 nM, respectively.
The corresponding values for `Cc1cc(C(F)F)n2ncc(C(=O)N[C@H]3CC[C@]4(CCN(c5ccc(F)cc5Cl)C4=O)CC3)c2n1` [Example 333, N-[(cis)-2-(2-chloro-4-fluorophenyl)-1-oxo-2-azaspiro[4.5]dec-8-yl]-7-(difluoromethyl)-5-methylpyrazolo[1,5-a]pyrimidine-3-carboxamide] are 55 nM, 30000 nM and 670 nM.
`Cc1ccn2ncc(C(=O)N[C@H]3CC[C@]4(CCN(c5ccc(F)cc5Cl)C4=O)CC3)c2n1` [Example 335, N-[(cis)-2-(2-chloro-4-fluorophenyl)-1-oxo-2-azaspiro[4.5]dec-8-yl]-5-methylpyrazolo[1,5-a]pyrimidine-3-carboxamide]: the IC50 in assay [1] is 650 nM; in assay [2], at least 50000 nM; in assay [3] it was over 10000 nM.
For `Cc1ccnc2c(C(=O)N[C@H]3CC[C@]4(CCN(c5ccc(F)cc5Cl)C4=O)CC3)cnn12` [Example 336, N-[(cis)-2-(2-chloro-4-fluorophenyl)-1-oxo-2-azaspiro[4.5]dec-8-yl]-7-methylpyrazolo[1,5-a]pyrimidine-3-carboxamide] the same measures were 54 nM, at least 50000 nM and 870 nM.
The corresponding values for `COCc1cc(C)n2ncc(C(=O)N[C@H]3CC[C@]4(CCN(c5ccc(F)cc5Cl)C4=O)CC3)c2n1` [Example 337, N-[(cis)-2-(2-chloro-4-fluorophenyl)-1-oxo-2-azaspiro[4.5]dec-8-yl]-5-(methoxymethyl)-7-methylpyrazolo[1,5-a]pyrimidine-3-carboxamide] are 1100 nM, at least 50000 nM and over 10000 nM.
The corresponding values for `O=C(NC1CC1)c1nc[nH]c1C(=O)N[C@H]1CC[C@]2(CCN(c3ccc(F)cc3Cl)C2=O)CC1` [Example 338, N^5-[(cis)-2-(2-chloro-4-fluorophenyl)-1-oxo-2-azaspiro[4.5]dec-8-yl]-N^4-cyclopropyl-1H-imidazole-4,5-dicarboxamide] are 1900 nM, 18000 nM and over 10000 nM.
Regarding `CCNC(=O)c1nc[nH]c1C(=O)N[C@H]1CC[C@]2(CCN(c3ccc(F)cc3Cl)C2=O)CC1` [Example 339, N^5-[(cis)-2-(2-chloro-4-fluorophenyl)-1-oxo-2-azaspiro[4.5]dec-8-yl]-N^4-ethyl-1H-imidazole-4,5-dicarboxamide], the IC50 in assay [1] is 3100 nM; in assay [2], at least 50000 nM; in assay [3] it was over 10000 nM.
Take `O=C(N[C@H]1CC[C@]2(CCN(c3ccc(F)cc3Cl)C2=O)CC1)c1[nH]cnc1C(=O)N1CC(F)C1` [Example 340, N-[(cis)-2-(2-chloro-4-fluorophenyl)-1-oxo-2-azaspiro[4.5]dec-8-yl]-4-[(3-fluoroazetidin-1-yl)carbonyl]-1H-imidazole-5-carboxamide]: the results for the 50% inhibitory concentration (IC50) in assay [1], in assay [2] and in assay [3] were 77 nM, 25000 nM and 850 nM, respectively.
For `COCCNC(=O)c1nc[nH]c1C(=O)N[C@H]1CC[C@]2(CCN(c3ccc(F)cc3Cl)C2=O)CC1` [Example 341, N^5-[(cis)-2-(2-chloro-4-fluorophenyl)-1-oxo-2-azaspiro[4.5]dec-8-yl]-N^4-(2-methoxyethyl)-1H-imidazole-4,5-dicarboxamide] the same measures were 2900 nM, at least 50000 nM and over 10000 nM.
Take `NC(=O)c1nc[nH]c1C(=O)N[C@H]1CC[C@]2(CCN(c3ccc(F)cc3Cl)C2=O)CC1` [Example 342, N^5-[(cis)-2-(2-chloro-4-fluorophenyl)-1-oxo-2-azaspiro[4.5]dec-8-yl]-1H-imidazole-4,5-dicarboxamide]: the concentration for half-maximal inhibition (IC50) in assay [1] was 840 nM; in assay [2], 35000 nM; in assay [3], 1300 nM.
The corresponding values for `Cn1cc(C(=O)N[C@H]2CC[C@@]3(CCN(c4ccc(F)cc4Cl)C3=O)CC2)c2ncccc21` [Example 343, N-[(trans)-2-(2-chloro-4-fluorophenyl)-1-oxo-2-azaspiro[4.5]dec-8-yl]-1-methyl-1H-pyrrolo[3,2-b]pyridine-3-carboxamide] are 2.3 nM, 24000 nM and 16 nM.
The corresponding values for `O=C(N[C@H]1CC[C@@]2(CCN(c3ccc(F)cc3Cl)C2=O)CC1)c1cn(CCO)c2cccnc12` [Example 344, N-[(trans)-2-(2-chloro-4-fluorophenyl)-1-oxo-2-azaspiro[4.5]dec-8-yl]-1-(2-hydroxyethyl)-1H-pyrrolo[3,2-b]pyridine-3-carboxamide] are 4 nM, at least 50000 nM and 21 nM.
The corresponding values for `COCCn1cc(C(=O)N[C@H]2CC[C@@]3(CCN(c4ccc(F)cc4Cl)C3=O)CC2)c2ncccc21` [Example 345, N-[(trans)-2-(2-chloro-4-fluorophenyl)-1-oxo-2-azaspiro[4.5]dec-8-yl]-1-(2-methoxyethyl)-1H-pyrrolo[3,2-b]pyridine-3-carboxamide] are 17 nM, 8200 nM and 44 nM.
